Laboratory results published in ChEMBL document CHEMBL1201862, “PubChem BioAssay data set” (2004).
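Results reflect a 48-hour exposure of cells in 96-well plates to compound at five concentrations. GI50: concentration for 50% inhibition of growth.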 Activity calls are given as the source filed them. No stated cut-off is given here; in the data, active = GI50 up to about 1.1 µM and inactive = higher. Where a SMILES comes first, the peptide text is derived from it. [ ]: non-standard residue; d: D form. Phe(4-NO2) = N[CH](Cc1ccc([N+](=O)[O-])cc1)C(=O)O

Experiments:
Assay in all cases: inhibition of tumour cell growth, NCI panel, 48 h
Malme-3M = tested on: Malme-3M
SNB-75 = tested on: SNB-75
SF-268 = tested on: SF-268
HCC 2998 = tested on: HCC 2998
HT-29 = tested on: HT-29
SNB-78 = tested on: SNB-78
NCI-H460 = tested on: NCI-H460
COLO 205 = tested on: COLO 205
HOP-92 = tested on: HOP-92
HCT-116 = tested on: HCT-116
DU-145 = tested on: DU-145
SK-MEL-5 = tested on: SK-MEL-5
RPMI-8226 = tested on: RPMI-8226
HL-60 = tested on: HL-60
A549 = tested on: A549
MDA-MB-231 = tested on: MDA-MB-231
KM12 = tested on: KM12
786-0 = tested on: 786-0
UO-31 = tested on: UO-31
LXFL 529 = tested on: LXFL 529

| Structure (SMILES) | GI50 (Malme-3M) | GI50 (SNB-75) | GI50 (SF-268) | GI50 (HCC 2998) | GI50 (HT-29) | GI50 (SNB-78) | GI50 (NCI-H460) | GI50 (COLO 205) | GI50 (HOP-92) | GI50 (HCT-116) | GI50 (DU-145) | GI50 (SK-MEL-5) | GI50 (RPMI-8226) | GI50 (HL-60) | GI50 (A549) | GI50 (MDA-MB-231) | GI50 (KM12) | GI50 (786-0) | GI50 (UO-31) | GI50 (LXFL 529) |
| --- | --- | --- | --- | --- | --- | --- | --- | --- | --- | --- | --- | --- | --- | --- | --- | --- | --- | --- | --- | --- |
| O=C1NC(=S)NC(=O)C1=C(O)Nc1ccccc1 | 25.8 µM (inactive) | 27.7 µM (inactive) | 32.7 µM (inactive) | 42.8 µM (inactive) | 47.4 µM (inactive) | 44.1 µM (inactive) | 22.7 µM (inactive) | 27.4 µM (inactive) | 8.34 µM (inactive) | 29.1 µM (inactive) | 30.5 µM (inactive) | 21.5 µM (inactive) | 27.4 µM (inactive) | 28.1 µM (inactive) | 24.1 µM (inactive) | 31.8 µM (inactive) | 36.6 µM (inactive) | 28.1 µM (inactive) | 26.5 µM (inactive) | – |
| O=C(c1ccco1)N(C(=S)N1CCN(c2ccccn2)CC1)c1ccccc1 | > 100 µM (inactive) | > 100 µM (inactive) | > 100 µM (inactive) | – | > 100 µM (inactive) | > 100 µM (inactive) | > 100 µM (inactive) | > 100 µM (inactive) | > 100 µM (inactive) | > 100 µM (inactive) | – | > 100 µM (inactive) | > 100 µM (inactive) | > 100 µM (inactive) | > 100 µM (inactive) | – | > 100 µM (inactive) | > 100 µM (inactive) | 88.7 µM (inactive) | > 100 µM (inactive) |
| CCN1CC2(CO)CCC(OC)C34C5CC6C(OC)CC(O)(C5C6OC)C(O)(C(OC)C23)C14 (centres undefined) | > 375 µM (inactive) | > 362 µM (inactive) | > 375 µM (inactive) | > 375 µM (inactive) | > 375 µM (inactive) | > 375 µM (inactive) | > 375 µM (inactive) | > 375 µM (inactive) | 168 µM (inactive) | > 375 µM (inactive) | – | > 211 µM (inactive) | > 375 µM (inactive) | > 375 µM (inactive) | > 375 µM (inactive) | – | > 375 µM (inactive) | – | > 375 µM (inactive) | – |
| O=C(O)CCC(NC(=O)c1ccc(Nc2nc3ccc(C(F)(F)F)cc3nc2-c2ccccc2)cc1)C(=O)O (centres undefined) | > 100 µM (inactive) | > 100 µM (inactive) | > 100 µM (inactive) | > 100 µM (inactive) | > 100 µM (inactive) | > 100 µM (inactive) | > 100 µM (inactive) | > 100 µM (inactive) | > 46.6 µM (inactive) | > 100 µM (inactive) | – | > 100 µM (inactive) | > 100 µM (inactive) | > 100 µM (inactive) | > 100 µM (inactive) | – | > 100 µM (inactive) | – | > 100 µM (inactive) | – |
| COc1ccc(NC(=O)/C(Cc2cc(=O)oc3cc(O)ccc23)=N\NC(C)(C)C)c(OC)c1 | > 100 µM (inactive) | – | > 100 µM (inactive) | > 100 µM (inactive) | > 100 µM (inactive) | > 100 µM (inactive) | > 100 µM (inactive) | > 100 µM (inactive) | 53 µM (inactive) | > 100 µM (inactive) | – | > 100 µM (inactive) | > 100 µM (inactive) | > 100 µM (inactive) | > 100 µM (inactive) | – | > 100 µM (inactive) | > 100 µM (inactive) | > 100 µM (inactive) | > 100 µM (inactive) |
| NC1=NN(c2ccccc2)C(=O)C1C(=O)C(=O)Nc1ccccc1 (centres undefined) | > 100 µM (inactive) | – | > 100 µM (inactive) | > 100 µM (inactive) | > 100 µM (inactive) | > 100 µM (inactive) | > 100 µM (inactive) | > 100 µM (inactive) | > 100 µM (inactive) | > 100 µM (inactive) | – | > 100 µM (inactive) | > 100 µM (inactive) | > 100 µM (inactive) | > 100 µM (inactive) | – | > 100 µM (inactive) | > 100 µM (inactive) | > 100 µM (inactive) | > 100 µM (inactive) |
| Cc1cc2ncn(-c3nc4ccccc4nc3C(C#N)S(C)(=O)=O)c2cc1C (centres undefined) | > 100 µM (inactive) | > 100 µM (inactive) | > 100 µM (inactive) | > 100 µM (inactive) | – | > 100 µM (inactive) | > 100 µM (inactive) | > 100 µM (inactive) | – | > 100 µM (inactive) | – | > 100 µM (inactive) | > 100 µM (inactive) | > 100 µM (inactive) | > 100 µM (inactive) | – | > 100 µM (inactive) | > 100 µM (inactive) | > 100 µM (inactive) | > 100 µM (inactive) |
| CCN(CC)CCCCC1CCN(CC(=O)N2c3cc(Cl)ccc3NC(=O)CC2C)CC1 (centres undefined) | > 100 µM (inactive) | – | > 100 µM (inactive) | > 100 µM (inactive) | > 100 µM (inactive) | – | > 100 µM (inactive) | > 100 µM (inactive) | > 100 µM (inactive) | > 100 µM (inactive) | – | > 100 µM (inactive) | > 100 µM (inactive) | > 100 µM (inactive) | > 100 µM (inactive) | – | – | > 100 µM (inactive) | > 100 µM (inactive) | > 100 µM (inactive) |
| O=CNc1cccc2c3c([nH]c12)CCCCCC3 | > 85.5 µM (inactive) | > 93.1 µM (inactive) | > 100 µM (inactive) | > 100 µM (inactive) | > 69.3 µM (inactive) | > 92 µM (inactive) | > 100 µM (inactive) | > 100 µM (inactive) | 48 µM (inactive) | > 100 µM (inactive) | – | 97.5 µM (inactive) | – | > 100 µM (inactive) | > 100 µM (inactive) | – | > 100 µM (inactive) | – | > 82.4 µM (inactive) | – |
| CCC12CCC[C@@]13C=C[C@H](O3)C(C)(C)C2=O (some centres undefined) | > 100 µM (inactive) | > 100 µM (inactive) | > 100 µM (inactive) | > 100 µM (inactive) | > 100 µM (inactive) | > 100 µM (inactive) | > 100 µM (inactive) | – | – | > 100 µM (inactive) | – | > 100 µM (inactive) | > 100 µM (inactive) | > 100 µM (inactive) | > 100 µM (inactive) | – | – | – | > 100 µM (inactive) | > 100 µM (inactive) |
| CN(C)CCNCc1c2ccccc2c(CNCCN(C)C)c2ccccc12 | 18.4 µM (inactive) | 43.6 µM (inactive) | 27 µM (inactive) | 10.7 µM (inactive) | 14 µM (inactive) | 41.8 µM (inactive) | 27 µM (inactive) | 9.53 µM (inactive) | 10.4 µM (inactive) | 16.5 µM (inactive) | – | 12.8 µM (inactive) | 31 µM (inactive) | 20.5 µM (inactive) | 23.1 µM (inactive) | – | 39.4 µM (inactive) | – | > 100 µM (inactive) | – |
| O=C1C=CC(=O)c2ncccc21 | 3.84 µM (inactive) | 5.36 µM (inactive) | 10.9 µM (inactive) | 7.26 µM (inactive) | 4.57 µM (inactive) | – | 3.98 µM (inactive) | 2.58 µM (inactive) | 1.63 µM (inactive) | 1.89 µM (inactive) | 7.8 µM (inactive) | 6.5 µM (inactive) | 2.55 µM (inactive) | 0.31 µM (active) | 10.1 µM (inactive) | 2.47 µM (inactive) | 12.1 µM (inactive) | 2.71 µM (inactive) | 4.43 µM (inactive) | – |
| CCN(CC)CCNC(=O)c1ccc([N+](=O)[O-])cc1OC | > 100 µM (inactive) | > 100 µM (inactive) | > 100 µM (inactive) | – | > 100 µM (inactive) | > 100 µM (inactive) | > 100 µM (inactive) | > 100 µM (inactive) | > 100 µM (inactive) | > 100 µM (inactive) | – | > 100 µM (inactive) | – | > 100 µM (inactive) | > 100 µM (inactive) | – | > 100 µM (inactive) | > 100 µM (inactive) | > 100 µM (inactive) | > 100 µM (inactive) |
| CC(NC(=O)C(Cc1ccc([N+](=O)[O-])cc1)NC(=O)C(N)CCCCN)C(=O)NC(Cc1ccc([N+](=O)[O-])cc1)C(N)=O (centres undefined) (H-K[Phe(4-NO2)]A[Phe(4-NO2)]-NH2; configuration not given here) | 50.8 µM (inactive) | > 37.5 µM (inactive) | > 50 µM (inactive) | 28.1 µM (inactive) | 20.4 µM (inactive) | – | 20.6 µM (inactive) | > 52.7 µM (inactive) | 28.3 µM (inactive) | > 45.2 µM (inactive) | 53.5 µM (inactive) | 35.8 µM (inactive) | 29.2 µM (inactive) | 18.7 µM (inactive) | 23 µM (inactive) | 39.6 µM (inactive) | 23.4 µM (inactive) | 21.9 µM (inactive) | 44.4 µM (inactive) | – |
| O[C@H]1[C@H](O)[C@@H](O)CN2CC[C@H](O)[C@H]12 [CASTANOSPERMINE] | > 90.6 µM (inactive) | > 100 µM (inactive) | > 100 µM (inactive) | > 95.5 µM (inactive) | > 100 µM (inactive) | > 100 µM (inactive) | > 100 µM (inactive) | > 100 µM (inactive) | > 100 µM (inactive) | > 100 µM (inactive) | – | > 100 µM (inactive) | > 100 µM (inactive) | > 39.8 µM (inactive) | > 100 µM (inactive) | – | > 100 µM (inactive) | – | > 94.4 µM (inactive) | – |
| CO[C@H]1C[C@H](O[C@H]2CC[C@]3(C=O)[C@H]4CC[C@]5(C)[C@@H](C6=CC(=O)OC6)CC[C@]5(O)[C@@H]4CC[C@]3(O)C2)O[C@H](C)[C@H]1O [CYMARIN] | 0.225 µM (active) | 0.4 µM (active) | 0.126 µM (active) | 2.08 µM (inactive) | 0.233 µM (active) | – | 0.112 µM (active) | 0.618 µM (active) | 0.341 µM (active) | 0.163 µM (active) | 0.115 µM (active) | 0.0993 µM (active) | 0.27 µM (active) | 0.118 µM (active) | 0.0805 µM (active) | 1.14 µM (inactive) | 0.402 µM (active) | 0.137 µM (active) | 0.308 µM (active) | – |
